Data on two molecules can be found in US20200377496A1, “INDOLE AND BENZIMIDAZOLE DERIVATIVES AS DUAL 5-HT2A and 5-HT6 RECEPTOR ANTAGONISTS” (ADAMED PHARMA, S.A., priority 2018, published 2020).

Structures are written as SMILES. Read-outs that look alike come from different tables or passages of the source.

Assay [1] concerns the target 5-HT6 receptors (Homo sapiens, UniProt P50406). Briefly: 5-HT6 receptor binding assay ([3H]-LSD radioligand). The settings on record: membranes from CHO-K1 cells with human 5-HT6 receptor, [3H]-LSD 1 nM. The procedure:
(§1) Preparation of Solutions of Test and Reference Compounds.
1 mM stock solutions of tested compounds were prepared in DMSO. Serial dilutions of compounds were prepared in 96-well microplate in assay buffers using automated pipetting system epMotion 5070 (Eppendorf). Each compound was tested in 10 concentrations from 1.0E-6 to 1.0E-11 M (final concentration).
5-HT6 Receptor Binding Assay.
Radioligand binding was performed using membranes from CHO-K1 cells stably transfected with the human 5-HT6 receptor (PerkinElmer). All assays were carried out in duplicates. 50 μl working solution of the tested compounds, 50 μl [3H]-LSD (final concentration 1 nM) and 150 μl diluted membranes (8 μg protein per well) prepared in assay buffer (50 mM Tris, pH 7.4, 10 mM MgCl2, 0.1 mM EDTA) were transferred to polypropylene 96 well microplate using 96-wells pipetting station Rainin Liquidator (MettlerToledo). Methiothepin (10 μM) was used to define nonspecific binding. Microplate was covered with a sealing tape, mixed and incubated for 60 minutes at 37° C. The reaction was terminated by rapid filtration through GF/A filter mate presoaked with 0.5% polyethyleneimine for 30 minutes. Ten rapid washes with 200 μl 50 mM Tris buffer (4° C., pH 7.4) were performed using automated harvester system Harvester-96 MACH III FM (Tomtec). The filter mates were dried at 37° C. in forced air fan incubator and then solid scintilator MeltiLex was melted on filter mates at 90° C. for 5 minutes. Radioactivity was counted in MicroBeta2 scintillation counter (PerkinElmer). Data were fitted to a one-site curve-fitting equation with Prism 6 (GraphPad Software) and Ki values were estimated from the Cheng-Prusoff equation.

The target in assay [2] is human GPCR 5-HT6 (Homo sapiens, UniProt P50406). Briefly: Cellular aequorin-based functional assay, 5-HT6. Format: cell-based. The settings on record: for 5-HT6 AGO EC50 [nM]: agonist mode, CHO-K1 aequorin cells; for Kb: antagonist mode, reference agonist serotonin 40 nM (EC80), read-out: 5-HT6 ANT Kb. The procedure:
as §1
(§2) 1 mM stock solutions of the tested compounds were prepared in DMSO. Serial dilutions were prepared in 96-well microplate in assay buffers using automated pipetting system epMotion 5070 (Eppendorf). Two independent experiments in duplicates were performed and 6 to 10 concentrations were tested.
(§3) 5-HT2A and 5-HT6 Functional Activity Assays.
(§4) Cellular aequorin-based functional assays were performed with γ-irradiated recombinant CHO-K1 cells expressing mitochondrially-targeted Aequorin, human GPCR (5-HT2A or 5-HT6) and the promiscuous G protein α16 (PerkinElemer). Assays were performed according to the standard protocol provided by the manufacturer. After thawing, cells were transferred to assay buffer (DMEM/HAM's F12 with 0.1% protease-free BSA) and centrifuged. Cell pellet was resuspended in assay buffer and coelenterazine h was added at final concentrations of 5 μM. Cell suspension was incubated at 21° C., protected from light with constant agitation, for 4 hours and then diluted with assay buffer to a concentration of 250,000 cells/ml. After 1 hour incubation 50 yl cell suspension was dispensed using automatic injectors built in radiometric and luminescence plate counter MicroBeta2 LumiJET (PerkinElmer, USA) into white opaque 96-well microplate preloaded with tested compounds. Immediate light emission generated following calcium mobilization was recorded for 30-60 seconds. In antagonist mode, after 15-30 minutes incubation reference agonist was added to the above assay mix and light emission was recorded again. Final concentration of reference agonist was equal EC80: serotonin 40 nM for 5-HT6 receptor and α-methylserotonin 30 nM for 5-HT2A receptor. The assays were performed in the agonist mode (5-HT6 AGO and 5-HT2A AGO) as well as antagonist mode (5-HT6 ANT and 5-HT2A ANT).
(§5) IC50 and EC50 were determined by non-linear regression analysis using GraphPad Prism 6.0 software. The log IC50 was used to obtain the Kb by applying the Cheng-Prusoff approximation.

For assay [3], the target named is human GPCR 5-HT2A (Homo sapiens, UniProt P28223). Briefly: Cellular aequorin-based functional assay, 5-HT2A. Format: cell-based. The settings on record: for 5-HT2A AGO EC50 [nM]: agonist mode, CHO-K1 aequorin cells. The procedure:
as §1, §2, §3, §4, §5

Assay [4] deals with scopolamine-induced deficits in learning and memory. In words: Scopolamine-induced deficits in step-through passive avoidance test in Wistar rats. Conditions: hydrochloride salt p.o. 180 min before training; scopolamine 0.3 mg/kg i.p.; male Wistar rats. The assay is classed as in vivo. Here is the method: Biological Example 4. Effects of Compounds 1 and 17, on Scopolamine-Induced Deficits in Learning and Memory in the Passive Avoidance Test in Wistar Rats
Drug-naive male Wistar rats (Charles River, Sulzfeld, Germany) were used. Rats were housed four per standard plastic cage and kept in a room with constant environmental conditions (22±1° C., relative humidity 60%, a 12:12 light-dark cycle with lights on at 7:00 a.m.). Animals were supplied by the breeder 2-3 weeks before the onset of behavioral procedures. During this time, the subjects were weighted and handled several times. […]
Effects of tested compounds on learning and memory function were evaluated using a step-through passive avoidance test (Ishiyama et al., 2007). […]
In the training (acquisition) session, the animals were individually placed in the lighted compartment and allowed to explore it freely for 10 s. The sliding door was then opened, and the step-through latency for animals to enter the dark compartment was measured with a 300-s cut-off time. […]
The test (expression) session was performed 24 h after the training session using the same paradigm but without any foot-shock or drug injections. Step-through latencies for animals to enter the dark compartment were measured with a 300-s cut-off time. […]
Body weights (g) and training/test latencies (s) were analyzed with the aid of a one-way analysis of variance (ANOVA). […]

human GPCR 5-HT6, sequence (P50406 whole entry): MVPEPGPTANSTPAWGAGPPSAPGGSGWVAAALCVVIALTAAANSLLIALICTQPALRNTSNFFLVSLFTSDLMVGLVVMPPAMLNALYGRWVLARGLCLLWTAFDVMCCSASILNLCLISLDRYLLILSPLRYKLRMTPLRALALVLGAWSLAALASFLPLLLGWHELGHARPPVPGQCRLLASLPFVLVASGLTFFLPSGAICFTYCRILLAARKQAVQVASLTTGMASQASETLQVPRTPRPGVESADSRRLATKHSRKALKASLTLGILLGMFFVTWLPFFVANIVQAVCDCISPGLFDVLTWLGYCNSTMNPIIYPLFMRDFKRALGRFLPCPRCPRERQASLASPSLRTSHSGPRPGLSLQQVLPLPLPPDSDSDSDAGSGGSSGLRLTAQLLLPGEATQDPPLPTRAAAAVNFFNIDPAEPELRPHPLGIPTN
human GPCR 5-HT2A, sequence (P28223 whole entry): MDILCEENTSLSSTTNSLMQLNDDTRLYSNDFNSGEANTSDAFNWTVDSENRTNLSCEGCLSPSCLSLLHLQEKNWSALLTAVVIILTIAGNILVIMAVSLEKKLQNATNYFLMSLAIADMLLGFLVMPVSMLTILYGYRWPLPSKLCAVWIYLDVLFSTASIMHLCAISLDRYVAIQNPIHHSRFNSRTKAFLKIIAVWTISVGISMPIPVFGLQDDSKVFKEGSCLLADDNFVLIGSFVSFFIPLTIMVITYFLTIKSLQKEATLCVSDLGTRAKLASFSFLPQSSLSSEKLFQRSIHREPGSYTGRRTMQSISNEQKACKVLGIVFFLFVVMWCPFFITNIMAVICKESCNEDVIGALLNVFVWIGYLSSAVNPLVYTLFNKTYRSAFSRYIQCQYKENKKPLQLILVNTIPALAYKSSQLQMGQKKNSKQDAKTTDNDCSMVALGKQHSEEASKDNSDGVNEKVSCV
5-HT6 receptors, sequence (P50406 whole entry): as the sequence (P50406 whole entry) above

On to `FC(F)(F)c1nc2c(N3CCNCC3)cccc2n1Cc1ccccc1` [Compound 1, 1-benzyl-4-(piperazin-1-yl)-2-(trifluoromethyl)-1H-benzimidazole], for which the affinity in assay [1], expressed as Ki, was 1.3 nM. Further, in assay [2], the “5-HT6 AGO EC50 [nM]” value is recorded as “N.C” and the Kb was 2.5 nM. The “5-HT2A AGO EC50 [nM]” value in assay [3] is on record as “N.C”. In addition, the Kb in assay [3] (antagonist mode, reference agonist α-methylserotonin 30 nM (EC80), read-out: 5-HT2A ANT Kb) turned out to be 18 nM. Further, the “minimal effective dose, elongation of step-through latencies in test session” value in assay [4] came to 3.0 mg/kg.
Consider `FC(F)(F)c1cc2c(N3CCNCC3)cccc2n1Cc1ccco1` [Compound 17, 1-(furan-2-ylmethyl)-4-(piperazin-1-yl)-2-(trifluoromethyl)-1H-indole], for which the inhibition constant (Ki) (in general, the dissociation constant of the complex between target and ligand, obtained from inhibition or displacement) in assay [1] turned out to be 0.62 nM. For the same molecule, in assay [2], the “5-HT6 AGO EC50 [nM]” value is recorded as “N.C” and the Kb came out at 0.47 nM. Moreover, in assay [3], the Kb came to 10 nM and the “5-HT2A AGO EC50 [nM]” value was “N.C”. For the same molecule, the “minimal effective dose, elongation of step-through latencies in test session” value in assay [4] is 1.0 mg/kg.
